In ChEMBL document CHEMBL4402536, “Recent progress on anti-Toxoplasma drugs discovery: Design, synthesis and screening” (Eur J Med Chem, 2019):
Values after ≈ are worked out from the molar mass of the structure shown.

System: not listed separately
Experiment: Therapeutic index, ratio of TD50 in CF-1 mouse to IC50 of Toxoplasma gondii infected in human HFF cells
Format: toxicity, cell-based
Details: read-out: TI
For `Cc1[nH]c2ccccc2c(=O)c1-c1ccc(Oc2ccc(OC(F)(F)F)cc2)cc1`, the selectivity ratio was 93500.
In the case of `COc1cc2[nH]c(C)c(-c3ccc(Oc4ccc(OC(F)(F)F)cc4)cc3)c(=O)c2cc1F`, the selectivity ratio is reported as greater than 7.1e+06.

System: Toxoplasma gondii
Experiment: Antiparasitic activity against Toxoplasma gondii infected in human HFF cells after 4 hrs
Format: functional, organism-based
Details: not given
`CC(C)(C)C1=CC(=NNc2ccc([N+](=O)[O-])cc2[N+](=O)[O-])C=C(C(C)(C)C)C1=O` showed an IC50 of 130 nM.
In the case of `CC(C)(C)C1=CC(=NNC(=O)c2ccc([N+](=O)[O-])cc2)C=C(C(C)(C)C)C1=O`, the IC50 is reported as 200 nM.
`CC(C)(C)C1=CC(=NNC(=O)c2ccncc2)C=C(C(C)(C)C)C1=O` showed an IC50 of 2300 nM.
With `CCOc1ccc(/C=C/c2nc(=O)c3ccccc3o2)cc1` the IC50 was 270 nM.
Work on `CC(C)(C)c1cc(C2C(C#N)=C(N)OC3=C2C(=O)CCC3)cc(C(C)(C)C)c1O` (centres undefined) yielded an IC50 of 1300 nM.

System: not listed separately
Experiment: Selectivity index, ratio of EC50 for human HFF cells to EC50 Toxoplasma gondii RH
Format: functional
Details: not given
With `CC[C@]1(C)NC(=O)[C@H](CCCCCC(=O)[C@@H](C)OC(C)=O)NC(=O)[C@H]2C[C@H](C)CN2C(=O)[C@H](Cc2ccccc2)NC1=O` the “Selectivity Index” value was 62.
With `CC[C@]1(C)NC(=O)[C@H](CCCCCC(=O)[C@@H](C)OC(=O)Oc2ccccc2)NC(=O)[C@H]2C[C@H](C)CN2C(=O)[C@H](Cc2ccccc2)NC1=O` the “Selectivity Index” value was 47.7.

System: Toxoplasma gondii
Experiment: Antiparasitic activity against Toxoplasma gondii infected in human HFF cells after 7 days by crystal violet assay
Format: functional, organism-based
Details: 168 h
`CC(C)c1n[nH]c2c(=O)[nH]c(Cc3ccccc3)nc12` gave an IC50 of 2000 nM.
`C/C1=C\[C@H](C)C[C@H](C)OC(=O)C[C@H](c2ccc(O)cc2)NC(=O)[C@@H](Cc2c(Br)[nH]c3ccccc23)N(C)C(=O)[C@H](C)NC(=O)[C@@H](C)C1` [JASPAMIDE] gave an EC50 of 30 to 300 nM.
In the case of `CCCOc1ccccc1-c1nc2[nH]nnc2c(=O)[nH]1` [ZAPRINAST], the IC50 is reported as 60000 nM.

System: Toxoplasma gondii
Experiment: Antiparasitic activity against Toxoplasma gondii RH infected in human HFF cells in presence of […] by radio-labelled assay
Format: functional, organism-based
Details: not given
Molecule `CC[C@]1(C)NC(=O)[C@H](CCCCCC(=O)[C@@H](C)OC(C)=O)NC(=O)[C@H]2C[C@H](C)CN2C(=O)[C@H](Cc2ccccc2)NC1=O` has an EC50 of 10.2 nM.
With `C=C(C)[C@H](CC=C(C)C)C[C@]12C[C@H](CC=C(C)C)C(C)(C)[C@](CC=C(C)C)(C(=O)C(C(=O)c3ccc(O)c(O)c3)=C1O)C2=O` the EC50 was 1800 nM.
With `CC[C@]1(C)NC(=O)[C@H](CCCCCC(=O)[C@@H](C)OC(=O)Oc2ccccc2)NC(=O)[C@H]2C[C@H](C)CN2C(=O)[C@H](Cc2ccccc2)NC1=O` the EC50 was 11.3 nM.

System: not listed separately
Experiment: Half life of the compound
Format: physicochemical
Details: not given
With `CCN(CC)c1ccc(C(=O)NC(=O)c2ccccc2O)cc1` the half-life was 33 min.
Work on `CCc1ccc(C(=O)NC(=O)c2ccccc2O)cc1` yielded a half-life of less than 10 min.

System: Toxoplasma gondii
Experiment: Antiparasitic activity against Toxoplasma gondii infected in CF-1 mouse at 0.04 to 50 mg/kg, po after 48 hrs
Format: functional
Details: not given
Work on `Cc1[nH]c2ccccc2c(=O)c1-c1ccc(Oc2ccc(OC(F)(F)F)cc2)cc1` yielded an ED50 of 0.14 mg/kg.
Molecule `COc1cc2[nH]c(C)c(-c3ccc(Oc4ccc(OC(F)(F)F)cc4)cc3)c(=O)c2cc1F` has an ED50 of 0.08 mg/kg.

System: HFF
Experiment: Cytotoxicity against human HFF cells assessed as reduction in cell viability
Format: cell-based
Details: not given
`CC[C@]1(C)NC(=O)[C@H](CCCCCC(=O)[C@@H](C)OC(C)=O)NC(=O)[C@H]2C[C@H](C)CN2C(=O)[C@H](Cc2ccccc2)NC1=O` gave an EC50 of 632 nM.
Molecule `CC[C@]1(C)NC(=O)[C@H](CCCCCC(=O)[C@@H](C)OC(=O)Oc2ccccc2)NC(=O)[C@H]2C[C@H](C)CN2C(=O)[C@H](Cc2ccccc2)NC1=O` has an EC50 of 59.2 nM.

System: Huh-7
Experiment: Cytotoxicity against human HuH7 cells assessed as reduction in cell viability
Format: functional, cell-based
Details: not given
With `OCCCCCCC1COOC2(CCCCCCCCCCC2)OO1` (centres undefined) the IC50 was 310 µg/mL (≈ 865 µM).

System: Toxoplasma gondii
Experiment: Antiparasitic activity against Toxoplasma gondii
Format: functional, organism-based
Details: not given
Work on `Cc1cccc(Cc2nn(C(C)(C)C)c3ncnc(N)c23)c1` yielded an EC50 of 110 nM.
`CCN(CC)c1ccc(C(=O)NC(=O)c2ccccc2O)cc1` showed an IC50 of 8 nM.
In the case of `O=c1[nH]ccc2nc(NC3CCCNC3)nc(Nc3ccc(S(=O)(=O)N4CCOCC4)cc3)c12` (centres undefined), the IC50 is reported as less than 500 nM.
For `O=c1c2ccccc2ncn1C[C@H](O)C[C@H]1NCCC[C@@H]1O`, the EC50 was 1900 nM.
Molecule `O=C(C[C@H]1NCCC[C@@H]1O)Cn1cnc2c(c1=O)CCCC2` has an EC50 of 880 nM.
In the case of `CC(=O)[C@@H]1CC[C@]2(C)CC[C@]3(C)[C@H](CC[C@@H]4[C@@]5(C)CCC(=O)C(C)(C)[C@@H]5CC[C@]43C)[C@@H]12`, the IC50 is reported as 24400 nM.
Molecule `O=C1CCCN[C@@H]1CCCn1cnc2ccccc2c1=O` has an EC50 of 8900 nM.
Molecule `CC(C)n1c(/C=N/Nc2nc3ccccc3[nH]2)nc2ccccc21` has an IC50 of 1360 nM.
For `C[C@H]1[C@H](C)CC[C@]2(C(=O)OCCn3cnnc3-c3ccccc3)CC[C@]3(C)C(=CC[C@@H]4[C@@]5(C)CC[C@H](O)C(C)(C)[C@@H]5CC[C@]43C)[C@H]12`, the IC50 was 128 µg/mL.
Work on `O=C1C=C/C(=N\Oc2ccc([N+](=O)[O-])cc2[N+](=O)[O-])c2cccnc21` yielded an IC50 of 1340 nM.
Work on `CCc1ccc(C(=O)NC(=O)c2ccccc2O)cc1` yielded an IC50 of 16 to 32 nM.
With `O=C1C2=C(C(=O)c3ccccc31)[C@H]1Oc3ccc(Cl)cc3[C@H]1CO2` the IC50 was less than 1000 nM.
With `COc1ccc(OC)c(NCc2ccc3nc(N)nc(N)c3c2Cl)c1` the IC50 was 20 nM.
`CC(=O)O[C@H]1CC[C@]2(C)[C@H]3CC=C4[C@@H]5CC(C)(C)CC[C@]5(C(=O)O)CC[C@@]4(C)[C@]3(C)CC[C@H]2C1(C)C` [ACETYL OLEANOLIC ACID] showed an IC50 of 6800 nM.
`CC(C)(C)[C@H]1CC[C@H](CC2=C(O)C(=O)c3ccccc3C2=O)CC1` [BUPARVAQUONE] showed an IC50 of 100 nM.
Work on `O=c1[nH]c2cc(Cl)ccc2n1C1CCN(CCCC(c2ccc(F)cc2)c2ccc(F)cc2)CC1` [CLOPIMOZIDE] yielded an IC50 of 1800 nM.
Work on `O=C(CC1NCCCC1O)Cn1cnc2cc(Br)c(Cl)cc2c1=O` (centres undefined) [HALOFUGINONE] yielded an EC50 of 1.4 nM.
Molecule `OCCOCCN1CCN(C(c2ccccc2)c2ccc(Cl)cc2)CC1` (centres undefined) [HYDROXYZINE] has an IC50 of 1000 nM.
Work on `C=CC(C)(C)c1cc(/C=C/C(=O)c2ccc(O)cc2)c(OC)cc1O` [LICOAGROCHACONE A] yielded an IC50 of 0.848 µg/mL.
In the case of `O=C(Nc1ccc([N+](=O)[O-])cc1Cl)c1cc(Cl)ccc1O` [NICLOSAMIDE], the EC50 is reported as 0.0453 µg/mL.
For `CC(=O)O[C@H]1CC[C@]2(C)[C@H]3CC=C4[C@@H]5[C@@H](C)[C@H](C)CC[C@]5(C(=O)O)CC[C@@]4(C)[C@]3(C)CC[C@H]2C1(C)C` [O-ACETYLURSOLIC ACID], the IC50 was 7900 nM.
With `CC1(C)CC[C@]2(C(=O)O)CC[C@]3(C)C(=CC[C@@H]4[C@@]5(C)CC[C@H](O)C(C)(C)[C@@H]5CC[C@]43C)[C@@H]2C1` [OLEANOLIC_ACID] the IC50 was 54800 nM.
With `CC/C(=C(\c1ccccc1)c1ccc(OCCN(C)C)cc1)c1ccccc1` [TAMOXIFEN] the IC50 was 1900 nM.
`Cc1coc2c1C(=O)C(=O)c1c-2ccc2c1CCCC2(C)C` [TANSHINONE IIA] showed an IC50 of 2500 nM.
For `C[C@H]1[C@H](C)CC[C@]2(C(=O)O)CC[C@]3(C)C(=CC[C@@H]4[C@@]5(C)CC[C@H](O)C(C)(C)[C@@H]5CC[C@]43C)[C@H]12` [URSOLIC ACID], the IC50 was 5900 nM.

System: not listed separately
Experiment: Inhibition of Toxoplasma gondii CDPK1
Details: not given
Work on `Cc1cccc(Cc2nn(C(C)(C)C)c3ncnc(N)c23)c1` yielded an IC50 of 3.99 nM.

System: Toxoplasma gondii
Experiment: Antiparasitic activity against Toxoplasma gondii infected in human HFF cells after 4 hrs by CellTiter 96Aqueous One cell viability assay
Format: functional, organism-based
Details: not given
`Cc1[nH]c2ccccc2c(=O)c1-c1ccc(Oc2ccc(OC(F)(F)F)cc2)cc1` showed an IC50 of 1 nM.
With `COc1cc2[nH]c(C)c(-c3ccc(Oc4ccc(OC(F)(F)F)cc4)cc3)c(=O)c2cc1F` the IC50 was 0.007 nM.
For `Cc1[nH]c2cc(F)cc(F)c2c(=O)c1-c1ccc(Oc2ccc(OC(F)(F)F)cc2)cc1`, the EC50 was 5 nM.

System: Toxoplasma gondii
Experiment: Antiparasitic activity against Toxoplasma gondii infected in human HuH7 cells
Format: functional, organism-based
Details: not given
For `O=C1CN(CCCCCN2CCCCC2)c2ccc([N+](=O)[O-])cc2N1`, the MIC50 was 3.3 µM (≈ 1.14 µg/mL).

Same assay, conditions: Huh-7
In the case of `OCCCCCCC1COOC2(CCCCCCCCCCC2)OO1` (centres undefined), the LC50 is reported as 1.11 µg/mL (≈ 3.1 µM).
Molecule `C[C@H]1Cc2c([nH]c3cc(Cl)c(F)cc23)[C@@]2(N1)C(=O)Nc1ccc(Cl)cc12` [CIPARGAMIN] has an IC50 of 1000 nM.
